Results as given in US9938316B2, “Selective inhibitors of α2 isoform of Na,K-ATPase and use thereof for reduction of intra-ocular pressure and as cardiotonic agents” (priority 2013, dated 2018).

Tests used:
[1] = system: purified α2β1FXYD1 complexes of Na,K-ATPase; assay: Dissociation of cardiac glycosides from the α2β1 isoform complex; conditions: α2β1 isoform complex, 37° C.
Method: Since the principal isoform in NPE cells is α2 and dissociation from the pump is expected to affect the duration of the effects on IOP, the dissociation rates of different cardiac glycosides from the purified α2β1 isoform were compared.
Purified α2β1FXYD1 complexes (0.3-0.5 mg/ml) were incubated for 30 minutes at 37° C. in a medium containing ATP, 1 mM; NaCl 100 mM; MgCl2, 4 mM Histidine.HCl 25 mM pH 7.4 without (Control) or with 1 μM of different cardiac glycosides. The enzyme solutions were then diluted 100-fold into a medium containing 100 mM NaCl, 5 mM KCl, 1 mM EDTA (Tris), 0.005 mg/ml C12E8, 0.01 mg/ml SOPS, and 0.001 mg/ml cholesterol and incubated at 37° C. for different lengths of time. Aliquots were removed at different times and Na,K-ATPase activity was measured in triplicate over 0.5 minutes (digoxigenin) or 2 minutes (other cardiac glycosides) in the standard activity medium containing 200 μM ATP. The activity of test samples was divided by the activity of the control samples and the time-course for reversal of inhibition was analyzed by fitting the data to the function vt=v∞e^−kt+c. Normalized curves for comparison of different experiments (e.g. as in FIG. 9) were obtained by subtracting the constant value c from each value of the activity and re-fitting the ratio vt/v∞=1−e^−kt.

[2] = system: intra-ocular pressure (IOP) of rabbits; assay: IB-MECA-induced ocular hypertension in rabbits; type: in vivo, New Zealand white rabbits; conditions: 1 mM applied after IB-MECA
Method: IB-MECA induces acute ocular hypertension by a different and well-defined mechanism. Namely, IB-MECA is a selective agonist of the A3-adenosine receptor, and rises aqueous humour inflow and IOP by activating Cl channels of the NPE cells (18, 19). […] FIG. 8A depicts the effects of DMe (0.1-1 mM) applied prior to the IB-MECA, and a similar result was obtained for DGlyN (not shown). FIG. 8B depicts effects of digoxigenin, DGlyN and DMe (1 mM) applied after the IB-MECA.
New Zealand white rabbits (3-3.5 kg) about 1 year old, of either sex, were housed individually in separate cages in animal room conditions on a reversed, 12-hour dark/light cycle. For the experiments the animals were transferred to rabbit restrainers in a quiet and calm atmosphere (FIG. 1). […] Animal care and treatment were subject to the approval of the institutional committee for animal experiments, Weizmann Institute IACUC permission (no 04270911-2).
IOP (mm Hg) of rabbits was measured using a calibrated Pneumatonometer (Model 30, Reichert technologies, FIG. 1). A local anesthetic Oxybuprocaine HCl (0.4%, 25 μl) was applied to each cornea about a minute before IOP measurements. Two baseline IOP readings were taken before topical administration of the CG (or PBS as control) and after half an hour (Zero time). […] At zero time one drop of 4AP (40 mg/ml, 30 μl) or IB-MECA (1 μM, 30 μl) was administered to both eyes of each rabbit IOP measurements were made at different times as indicated in each experiment. In the experiments for which the IOP was elevated for several hours, 4AP was added every […] or IB-MECA every 2 hours. […] In all cases the figures depict the average effect on IOP (i.e for four or six eyes) compared to control ±SEM. […] Significance of differences from the control was calculated by the unpaired Students t-test (p values), p values <0.05 were considered significant. Corneal thickness (μm) was measured using an ultrasonic pachymeter (Sonogage pachometer, Cleveland, USA), before and during the experiment with CG and 4AP treatments. The values represent averages of three independent measurements for each eye.

[3] = system: Na,K-ATPase α2β2 isoform complex; assay: biochemical; set-up: species or system human; conditions: ratio of Ki, Table 6
Text: (§1) Human β1, β2 and β3 were cloned into the pHIL-D2 expression vector containing the human α1 or α2. pHIL-D2 expression vectors containing porcine (p) α1, human (h) α1 or human α2 with Hisx10 tagged porcine β1 were previously generated (7, 9). Human β1 (Accession: P05026), human β2 (Accession: P14415) and human β3 (Accession: […]) cDNAs in pSD5 vector were a gift from K. Geering Univ. Lausanne Switzerland. The open reading frames and flanking regions of hβ1, hβ2 and hβ3 (in pSD5) were amplified separately by polymerase chain reaction (PCR) using synthetic primers containing BglII and SalI cleavage sites. Each one of the amplified fragments were digested with BglII and SalI and ligated to BglII and SalI treated plasmid pHIL-D2-(pα1/His10pβ1) to generate pHIL-D2 (pα1/His10hβ1or2or3). hβ1, hβ2 and hβ3 containing fragments were excised from pHIL-D2-(pα1/His10hβ1or2or3) and subcloned into pHIL-D2-(hα1/His10pβ1) or pHIL-D2-(hα2/His10pβ1) to produce pHIL-D2-(hα1/His10hβ1or2or3) and pHIL-D2-(hα2/His10hβ1or2or3). The newly created plasmids were analyzed for correct integration and correct sequence of the insert by restriction enzymatic digestions and sequencing. DNA of each construct was prepared in large quantities in E. coli XL-1 Blue for Pichia pastoris transformation.
(§2) Inhibition of Na,K-ATPase activity of the detergent-soluble α1β1, α2β1, and α3β1 complexes by CG's was determined as described (6) using either the αβ or αβFXYD1 complexes. […] The K0.5K was estimated by varying K concentration in a medium containing a fixed total K+choline chloride of 60 mM, and constant NaCl of 140 mM. Curves were fitted to the Hill function v=Vmax*[S]^n/([S]^n+K^n), where S is the K concentration, n is the Hill coefficient and K^n is K0.5K. For comparison of different curves the ratio v/Vmax for each curve was calculated and replotted. In experiments to assess inhibition of Na,K-ATPase activity by cardiac glycosides of the present invention, the percent inhibition VCG/V0 was calculated and Ki values were obtained by fitting the data to the function VCG/V0=Ki/([CG]+Ki)+ c. Inhibition was estimated in 3-8 separate experiments and average Ki values ±SEM were calculated. Significance of differences between Kiα1 and Kiα2 was calculated by the unpaired Student's t-test (p values). […] P values <0.05 were considered significant.

[4] = biological target: T1, Na,K-ATPase α2β2 isoform complex (Homo sapiens, UniProt P50993); assay: biochemical
T1 construct: made in house; host or cells: Pichia pastoris SMD1165
Text: as §1, §2

[5] = biological target: T2, Na,K-ATPase α2β3 isoform complex (Homo sapiens, UniProt P50993); assay: biochemical
T2 construct: made in house; host or cells: Pichia pastoris SMD1165
Text: as §1, §2

[6] = system: Na,K-ATPase α2β3 isoform complex; assay: biochemical; set-up: species or system human; conditions: ratio of Ki, Table 6
Text: as §1, §2

Structure (SMILES)	k ± SEM (rate of dissociation) [1]	Duration of the effect compared with digoxigenin [2]	Effect on IB-MECA-induced ocular hypertension [2]	Selectivity α1β1/α2/β2 [3]	Ki [4]	Ki [5]	Selectivity α1β1/α2β3 [6]
CC1CN(CC(N)=O)CCC(OC2C(O)CC(OC3C(O)CC(OC4CCC5(C)C(CCC6C5CC(O)C5(C)C(C7=CC(=O)OC7)CCC65O)C4)OC3C)OC2C)O1 (stereo not shown) [DGlyN]	0.009 ± 0.001, 3 min^−1	significantly greater	almost the same as seen with 4AP				
CC1CN(C)CCC(OC2C(O)CC(OC3C(O)CC(OC4CCC5(C)C(CCC6C5CC(O)C5(C)C(C7=CC(=O)OC7)CCC65O)C4)OC3C)OC2C)O1 (stereo not shown) [DMe]	0.0067 ± 0.004, 3 min^−1	significantly greater	almost the same as seen with 4AP	5.07	20.4 ± 1.8 nM	10.8 ± 0.6 nM	9.5
